Patent US10040781B2, “Tank-binding kinase inhibitor compounds” (Gilead Sciences, Inc., priority 2014, dated 2018)

Assays:
TBK1 = TBK1 (Homo sapiens (Human), UniProt Q9UHD2); assay: TBK1 TR-FRET enzymatic assay;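 note: phosphorylation of a biotinylated Ser/Thr peptide by purified full-length recombinant TBK1, read by TR-FRET after 240 min at 25 °C, IC50 is the geometric mean of at least four runs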
hJAK2 = hJAK2 (Homo sapiens (Human), UniProt O60674); assay: hJAK2 LANCE TR-FRET enzymatic assay; type: biochemical; conditions: read-out: JAK2 IC50
IKKε = IKKε (Homo sapiens (Human), UniProt Q14164); assay: IKKε TR-FRET enzymatic assay; type: biochemical; conditions: read-out: IKKe IC50
IKKε, sequence (Q14164 whole entry): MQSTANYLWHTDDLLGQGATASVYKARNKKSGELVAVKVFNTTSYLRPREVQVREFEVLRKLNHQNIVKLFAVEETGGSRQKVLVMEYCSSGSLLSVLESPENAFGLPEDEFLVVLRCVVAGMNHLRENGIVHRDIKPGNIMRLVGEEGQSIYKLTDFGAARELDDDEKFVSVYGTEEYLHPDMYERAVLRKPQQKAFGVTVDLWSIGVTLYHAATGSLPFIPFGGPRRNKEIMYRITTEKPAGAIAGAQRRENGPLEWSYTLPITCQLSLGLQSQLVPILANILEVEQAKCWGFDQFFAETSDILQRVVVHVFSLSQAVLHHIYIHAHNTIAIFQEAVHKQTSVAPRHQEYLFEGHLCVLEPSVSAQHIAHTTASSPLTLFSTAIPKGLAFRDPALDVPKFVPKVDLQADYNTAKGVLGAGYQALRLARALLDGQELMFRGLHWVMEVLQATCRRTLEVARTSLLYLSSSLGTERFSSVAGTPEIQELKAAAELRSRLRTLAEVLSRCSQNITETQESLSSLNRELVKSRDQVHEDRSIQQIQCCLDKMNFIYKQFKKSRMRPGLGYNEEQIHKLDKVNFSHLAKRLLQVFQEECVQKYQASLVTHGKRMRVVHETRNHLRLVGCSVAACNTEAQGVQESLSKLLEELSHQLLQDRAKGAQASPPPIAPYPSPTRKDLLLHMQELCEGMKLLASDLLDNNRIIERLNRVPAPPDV

hJAK2, sequence (O60674 whole entry): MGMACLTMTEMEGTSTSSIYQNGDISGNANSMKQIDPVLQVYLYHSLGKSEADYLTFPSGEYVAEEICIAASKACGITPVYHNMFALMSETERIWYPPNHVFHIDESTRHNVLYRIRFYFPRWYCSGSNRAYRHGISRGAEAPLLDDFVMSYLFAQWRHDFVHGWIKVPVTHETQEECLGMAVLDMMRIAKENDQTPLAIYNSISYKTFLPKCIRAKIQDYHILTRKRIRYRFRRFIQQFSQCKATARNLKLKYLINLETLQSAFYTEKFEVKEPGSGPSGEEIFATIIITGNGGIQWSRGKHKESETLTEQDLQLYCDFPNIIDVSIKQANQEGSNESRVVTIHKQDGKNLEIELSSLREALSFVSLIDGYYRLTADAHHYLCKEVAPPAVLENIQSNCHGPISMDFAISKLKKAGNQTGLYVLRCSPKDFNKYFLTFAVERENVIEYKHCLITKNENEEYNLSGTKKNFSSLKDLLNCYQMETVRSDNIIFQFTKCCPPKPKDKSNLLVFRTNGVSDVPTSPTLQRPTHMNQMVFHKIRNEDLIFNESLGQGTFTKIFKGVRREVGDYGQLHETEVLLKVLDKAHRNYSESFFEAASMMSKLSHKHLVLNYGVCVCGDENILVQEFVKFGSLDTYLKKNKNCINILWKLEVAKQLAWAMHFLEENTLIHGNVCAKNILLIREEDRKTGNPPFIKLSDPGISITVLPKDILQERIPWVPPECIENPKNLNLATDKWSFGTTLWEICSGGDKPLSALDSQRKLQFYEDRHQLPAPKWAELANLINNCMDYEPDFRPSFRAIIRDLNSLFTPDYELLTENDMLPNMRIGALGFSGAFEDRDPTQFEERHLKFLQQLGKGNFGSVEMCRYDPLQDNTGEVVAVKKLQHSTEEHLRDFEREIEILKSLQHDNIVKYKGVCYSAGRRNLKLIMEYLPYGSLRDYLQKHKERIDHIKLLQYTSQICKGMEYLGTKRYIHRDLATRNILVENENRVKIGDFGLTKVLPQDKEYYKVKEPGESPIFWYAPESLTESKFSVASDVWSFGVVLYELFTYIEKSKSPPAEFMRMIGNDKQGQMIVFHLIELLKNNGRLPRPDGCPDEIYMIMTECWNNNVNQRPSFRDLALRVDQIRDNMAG
TBK1, sequence (Q9UHD2 whole entry): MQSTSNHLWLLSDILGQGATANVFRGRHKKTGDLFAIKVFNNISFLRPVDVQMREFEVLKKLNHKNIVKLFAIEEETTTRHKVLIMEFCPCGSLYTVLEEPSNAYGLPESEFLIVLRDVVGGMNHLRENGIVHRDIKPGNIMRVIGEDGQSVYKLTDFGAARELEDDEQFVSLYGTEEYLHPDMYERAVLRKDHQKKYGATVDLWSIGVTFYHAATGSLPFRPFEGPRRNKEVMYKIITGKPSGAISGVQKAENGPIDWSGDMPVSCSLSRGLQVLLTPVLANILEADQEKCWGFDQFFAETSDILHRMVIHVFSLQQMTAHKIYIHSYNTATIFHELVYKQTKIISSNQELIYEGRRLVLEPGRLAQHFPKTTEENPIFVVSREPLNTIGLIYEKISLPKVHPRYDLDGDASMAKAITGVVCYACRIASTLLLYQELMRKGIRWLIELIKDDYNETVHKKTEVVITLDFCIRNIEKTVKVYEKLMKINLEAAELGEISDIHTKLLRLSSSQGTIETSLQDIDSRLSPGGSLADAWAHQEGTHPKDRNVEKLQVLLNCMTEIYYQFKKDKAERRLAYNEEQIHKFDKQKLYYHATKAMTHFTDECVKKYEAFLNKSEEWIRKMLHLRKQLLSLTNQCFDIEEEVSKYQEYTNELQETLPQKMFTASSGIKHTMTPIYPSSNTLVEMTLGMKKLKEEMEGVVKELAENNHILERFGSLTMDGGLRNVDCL

| SMILES | IC50 (TBK1) | IC50 (hJAK2) | IC50 (IKKε) |
| --- | --- | --- | --- |
| COc1cc(Nc2ncnc(-c3ccc(OC4CCOCC4)c(C#N)c3)n2)ccc1C1CCN(C2COC2)CC1 [Example 20, 5-(4-((3-methoxy-4-(1-(oxetan-3-yl)piperidin-4-yl)phenyl)amino)-1,3,5-triazin-2-yl)-2-((tetrahydro-2H-pyran-4-yl)oxy)benzonitrile] | 2 nM | > 1000 nM | 2 nM |
| COc1cc(Nc2ncnc(-c3ccc(O[C@@H]4CCN(C(=O)CO)C4)c(C#N)c3)n2)ccc1N1CCN(C2COC2)CC1 [Example 22, (R)-2-((1-(2-hydroxyacetyl)pyrrolidin-3-yl)oxy)-5-(4-((3-methoxy-4-(4-(oxetan-3-yl)piperazin-1-yl)phenyl)amino)-1,3,5-triazin-2-yl)benzonitrile] | 3 nM | 128 nM | 8 nM |
| C[C@H](O)C(=O)N1CCC(Oc2ccc(-c3ncnc(Nc4ccc(C5CCN(C6COC6)CC5)cc4)n3)cc2C#N)CC1 [Example 23, (S)-2-((1-(2-hydroxypropanoyl)piperidin-4-yl)oxy)-5-(4-((4-(1-(oxetan-3-yl)piperidin-4-yl)phenyl)amino)-1,3,5-triazin-2-yl)benzonitrile] | 6 nM | > 1000 nM | 10 nM |
| N#Cc1cc(-c2ncnc(Nc3ccc(N4CCN(C5COC5)CC4)cc3)n2)ccc1N1CCCC1=O [Example 28, 5-[4-[4-[4-(oxetan-3-yl)piperazin-1-yl]anilino]-1,3,5-triazin-2-yl]-2-(2-oxopyrrolidin-1-yl)benzonitrile] | 225 nM | 583 nM | 529 nM |
| COc1cc(Nc2ncnc(-c3ccc(OC4CCOCC4)c(C#N)c3)n2)ccc1OC(F)F [Example 31, 5-(4-((4-(difluoromethoxy)-3-methoxyphenyl)amino)-1,3,5-triazin-2-yl)-2-((tetrahydro-2H-pyran-4-yl)oxy)benzonitrile] | 9 nM | > 1000 nM | 20 nM |
| COc1cc(Nc2ncnc(-c3ccc(OC4CCS(=O)(=O)CC4)c(C#N)c3)n2)ccc1N1CCN(C2COC2)CC1 [Example 33, 2-((1,1-dioxidotetrahydro-2H-thiopyran-4-yl)oxy)-5-(4-((3-methoxy-4-(4-(oxetan-3-yl)piperazin-1-yl)phenyl)amino)-1,3,5-triazin-2-yl)benzonitrile] | 4 nM | 59 nM | 18 nM |
| N#Cc1cc(Nc2ncnc(-c3ccc(OC4CCOCC4)c(C#N)c3)n2)ccc1OC1CCOCC1 [Example 36, 5-((4-(3-cyano-4-((tetrahydro-2H-pyran-4-yl)oxy)phenyl)-1,3,5-triazin-2-yl)amino)-2-((tetrahydro-2H-pyran-4-yl)oxy)benzonitrile] | 10 nM | > 1000 nM | 12 nM |
| N#Cc1cc(-c2ncnc(Nc3ccc(N4CCN(C5COC5)CC4)c(C#N)c3)n2)ccc1OC1CCOCC1 [Example 38, 5-((4-(3-cyano-4-((tetrahydro-2H-pyran-4-yl)oxy)phenyl)-1,3,5-triazin-2-yl)amino)-2-(4-(oxetan-3-yl)piperazin-1-yl)benzonitrile] | 3 nM | > 1000 nM | 6 nM |
| C=CC(=O)Nc1ccc(Nc2ncnc(-c3ccc(OC4CCOCC4)c(C#N)c3)n2)cc1 [Example 39, N-(4-((4-(3-cyano-4-((tetrahydro-2H-pyran-4-yl)oxy)phenyl)-1,3,5-triazin-2-yl)amino)phenyl)acrylamide] | 6 nM | > 1000 nM | 35 nM |
| CC(C)(O)c1ccc(Nc2ncnc(-c3ccc(OC4CCOCC4)c(C#N)c3)n2)cc1 [Example 40, 5-(4-((4-(2-hydroxypropan-2-yl)phenyl)amino)-1,3,5-triazin-2-yl)-2-((tetrahydro-2H-pyran-4-yl)oxy)benzonitrile] | 6 nM | > 1000 nM | 23 nM |
| CNC(=O)N1CCC(Oc2ccc(-c3ncnc(Nc4ccc(N5CCN(C6COC6)CC5)cc4)n3)cc2C#N)CC1 [Example 41, 4-(2-cyano-4-(4-((4-(4-(oxetan-3-yl)piperazin-1-yl)phenyl)amino)-1,3,5-triazin-2-yl)phenoxy)-N-methylpiperidine-1-carboxamide] | 35 nM | > 1000 nM | 110 nM |
| N#Cc1cc(-c2ncnc(Nc3ccc(N4CCN(C5COC5)CC4)nc3)n2)ccc1OC1CCOCC1 [Example 43, 5-(4-((6-(4-(oxetan-3-yl)piperazin-1-yl)pyridin-3-yl)amino)-1,3,5-triazin-2-yl)-2-((tetrahydro-2H-pyran-4-yl)oxy)benzonitrile] | 7 nM | > 1000 nM | 15 nM |
| CC(C)(O)C(=O)N1CCC(Oc2ccc(-c3ncnc(Nc4ccc(N5CCN(C6COC6)CC5)cc4)n3)cc2C#N)CC1 [Example 45, 2-((1-(2-hydroxy-2-methylpropanoyl)piperidin-4-yl)oxy)-5-(4-((4-(4-(oxetan-3-yl)piperazin-1-yl)phenyl)amino)-1,3,5-triazin-2-yl)benzonitrile] | 202 nM | > 1000 nM | 243 nM |
| CC(C)(O)c1cccc(Nc2ncnc(-c3ccc(OC4CCOCC4)c(C#N)c3)n2)c1 [Example 47, 5-(4-((3-(2-hydroxypropan-2-yl)phenyl)amino)-1,3,5-triazin-2-yl)-2-((tetrahydro-2H-pyran-4-yl)oxy)benzonitrile] | 2 nM | 811 nM | 14 nM |
| N#Cc1cc(-c2ncnc(Nc3cccc(C(O)C(F)(F)F)c3)n2)ccc1OC1CCOCC1 (stereo not drawn) [Example 48, 2-((tetrahydro-2H-pyran-4-yl)oxy)-5-(4-((3-(2,2,2-trifluoro-1-hydroxyethyl)phenyl)amino)-1,3,5-triazin-2-yl)benzonitrile] | 3 nM | > 1000 nM | 31 nM |
| N#Cc1cc(-c2ncnc(Nc3ccc(N4CCOCC4)cc3)n2)ccc1OC1CCOCC1 [Example 49, 5-(4-((4-morpholinophenyl)amino)-1,3,5-triazin-2-yl)-2-((tetrahydro-2H-pyran-4-yl)oxy)benzonitrile] | 2 nM | 436 nM | 7 nM |
| N#Cc1cc(-c2ncnc(Nc3ccc(N4CCN(C5COC5)CC4)cc3)n2)ccc1OC1CCN(C(=O)CNC=O)CC1 [Example 51, N-(2-(4-(2-cyano-4-(4-((4-(4-(oxetan-3-yl)piperazin-1-yl)phenyl)amino)-1,3,5-triazin-2-yl)phenoxy)piperidin-1-yl)-2-oxoethyl)formamide] | 26 nM | 408 nM | 79 nM |

The next lines start with the values.

| IC50 (TBK1) | IC50 (hJAK2) | IC50 (IKKε) | SMILES |
| --- | --- | --- | --- |
| 1 nM | > 1000 nM | 4 nM | N#Cc1cc(-c2ncnc(Nc3ccc(N4CCN(C5COC5)CC4)cc3)n2)ccc1OC1CCSCC1 [Example 19, 5-(4-((4-(4-(oxetan-3-yl)piperazin-1-yl)phenyl)amino)-1,3,5-triazin-2-yl)-2-((tetrahydro-2H-thiopyran-4-yl)oxy)benzonitrile] |
| 4 nM | > 1000 nM | 6 nM | COc1cc(Nc2ncnc(-c3ccc(OC4CCOCC4)c(C#N)c3)n2)ccc1C(N)=O [Example 21, 4-((4-(3-cyano-4-((tetrahydro-2H-pyran-4-yl)oxy)phenyl)-1,3,5-triazin-2-yl)amino)-2-methoxybenzamide] |
| 1 nM | 602 nM | 2 nM | COc1cc(Nc2ncnc(-c3ccc(OC4CCOCC4)c(C#N)c3)n2)cc(OC)c1OC [Example 24, 2-((tetrahydro-2H-pyran-4-yl)oxy)-5-(4-((3,4,5-trimethoxyphenyl)amino)-1,3,5-triazin-2-yl)benzonitrile] |
| 2 nM | 988 nM | 7 nM | N#Cc1cc(-c2ncnc(Nc3ccc(N4CCN(C5COC5)CC4)c(F)c3)n2)ccc1OC1CCOCC1 [Example 27, 5-(4-((3-fluoro-4-(4-(oxetan-3-yl)piperazin-1-yl)phenyl)amino)-1,3,5-triazin-2-yl)-2-((tetrahydro-2H-pyran-4-yl)oxy)benzonitrile] |
| 1 nM | 68 nM | 2 nM | COc1cc(Nc2ncnc(-c3ccc(OC4CCOCC4)c(C#N)c3)n2)ccc1N1CCN(C(C)=O)CC1 [Example 32, 5-(4-((4-(4-acetylpiperazin-1-yl)-3-methoxyphenyl)amino)-1,3,5-triazin-2-yl)-2-((tetrahydro-2H-pyran-4-yl)oxy)benzonitrile] |
| 12 nM | > 1000 nM | 45 nM | N#Cc1cc(-c2ncnc(Nc3ccc(N4CCN(C5COC5)CC4)cc3)n2)ccc1OC1CCCOC1 (stereo not drawn) [Example 34, 5-(4-((4-(4-(oxetan-3-yl)piperazin-1-yl)phenyl)amino)-1,3,5-triazin-2-yl)-2-((tetrahydro-2H-pyran-3-yl)oxy)benzonitrile] |
| 7 nM | 166 nM | 29 nM | N#Cc1cc(-c2ncnc(Nc3ccc(N4CCN(C5COC5)CC4)cc3)n2)ccc1N1CC(O)C1 [Example 35, 2-(3-hydroxyazetidin-1-yl)-5-(4-((4-(4-(oxetan-3-yl)piperazin-1-yl)phenyl)amino)-1,3,5-triazin-2-yl)benzonitrile] |
| 35 nM | 24 nM | 71 nM | N#Cc1cc(-c2ncnc(Nc3ccc(N4CCOCC4)cc3)n2)ccc1NC(=O)C1CC1 [Example 42, N-(2-cyano-4-(4-((4-morpholinophenyl)amino)-1,3,5-triazin-2-yl)phenyl)cyclopropanecarboxamide] |
| 3 nM | 670 nM | 9 nM | CC(C)NC(=O)c1ccc(Nc2ncnc(-c3ccc(OC4CCOCC4)c(C#N)c3)n2)cc1 [Example 46, 4-((4-(3-cyano-4-((tetrahydro-2H-pyran-4-yl)oxy)phenyl)-1,3,5-triazin-2-yl)amino)-N-isopropylbenzamide] |
| 65 nM | 491 nM | 223 nM | CC(=O)NCC(=O)N1CCC(Oc2ccc(-c3ncnc(Nc4ccc(N5CCN(C6COC6)CC5)cc4)n3)cc2C#N)CC1 [Example 52, N-(2-(4-(2-cyano-4-(4-((4-(4-(oxetan-3-yl)piperazin-1-yl)phenyl)amino)-1,3,5-triazin-2-yl)phenoxy)piperidin-1-yl)-2-oxoethyl)acetamide] |
